# Measurements reported in patent US10131650B2, “Alpha-helix analog having triazine-piperazine backbone and method for preparing same” (POSCO, priority 2014, dated 2018).
# How the values were obtained:
# [1] = Water solubility in phosphate buffered saline; format: physicochemical; details: aqueous buffer; phosphate buffered saline at pH 7.4
# Description: As a result of analyzing the three peptoids, the selected compounds had the following structures of 9a (Chemical formula 4), 9b (Chemical formula 5) and 9c (Chemical formula 6), respectively.
# [2] = biological target: T1, MCL-1/BAK interaction in Jurkat T cells (Homo sapiens, UniProt Q07820); assay: Co-immunoprecipitation and Western blotting; format: cell-based; details: 2.5 hours, MCL-1 immunoprecipitation, Western blot
# T1 construct: endogenous in cells; host or cells: Jurkat T cells
# Method: In Opti-MEM medium, Jurkat T cells (1×10^7 cells) were treated with DMSO or compound. Cells were harvested after culturing for 2.5 hours, washed once with PBS, and lysed on ice using lysis buffer (50 mM Tris-HCl, pH 7.4, 150 mM NaCl, 1 mM EDTA, 1 mM DTT, 0.5% NP-40 and complete protease inhibitor tablet). Cell lysates were incubated with anti-MCL-1 antibody (S-19, Santa Cruz) overnight at 4° C. and incubated with protein A/G agarose for 1 hour. The beads were precipitated, washed at three times with lysis buffer, and the denatured protein was subjected to western blotting using anti-BAK (Cell Signaling) and anti-MCL-1 antibody. Western blot analysis was performed on an Immobilon-FL (Millipore) PVDF membrane. Goat anti-Rabbit IRDye 680 antibody (Licor) was used as a secondary antibody and the signal was analyzed with Odyssey 3.0 software.
# [3] = biological target: T2, interaction between MCL-1 and BH3 (Homo sapiens, UniProt Q07820); assay: Competitive fluorescence polarization assay with FITC-MCL-1-BH3 peptide; format: binding; details: for Ki: competitive fluorescence polarization, FITC-MCL-1-BH3 50 nM, 0.8 μM MCL-1ΔNΔC, read-out: Ki, dissociation of the interaction between MCL-1 and BH-3; for activity in competitive fluorescence polarization assay (MCL-1/BH3): result in words
# T2 construct: GST (cleaved yes); made in house; host or cells: E. coli BL21(DE3)
# Method: MCL-1 protein was incubated with sulfo-NHS-Biotin (Thermo Scientific) in 0.1 M NaHCO3 buffer (pH 8.3) for 45 minutes at room temperature to biotinylate the MCL-1 protein (because MCL-1ΔNΔC protein used in the test have several Lysine residues being exposed in a surface and being apart from the active site of BH3 binding, the protein is biotinylated with modification). The reaction was quenched with addition of 1.5 M hydroxylamine. The labeled protein was separated with the dialysis with 1×PBS buffer containing 0.05% Tween20 (pH 7.4). The degree of labeling was determined according to the manufacturer's instructions (degree of biotinylation: 1.05 biotin per protein).
# Fluorescence polarization values were measured with a SpectraMax M5 Multi-Mode Microplate Reader (Molecular Devices). […] KD was calculated with GraphPad Prism 4 software. […] N-terminal labeled FITC-MCL-1-BH3 peptide (FITC-Abu-[…]-NH2) was synthesized and purified with HPLC. The compounds was incubated at various concentrations with FITC-MCL-1-BH3 (50 nM) and 0.8 μM MCL-1ΔNΔC in binding buffer for 30 minutes and then was added by FITC-MCL-1-BH3 (50 nM). After incubated with addition of various concentrations of compounds, the fluorescence polarization was measured. Ki was calculated by using the conventional method (Nikolovska-Coleska, Z. et al, Anal. Biochem. 2004, 332, 261).
# [4] = test system: U266 cells (multiple myeloma); assay: Cell viability assay; format: cell-based; details: 24 hours
# U266 cells = assay: Caspase 3/7 assay; format: cell-based; details: 16 hours
# [5] = test system: HEK293 embryonic kidney cells; assay: Cell viability assay; format: cell-based; details: 24 hours
# α-synuclein = biological target: T3, α-synuclein (Homo sapiens, UniProt P37840); assay: Fluorescence polarization assay, binding to wild type α-synuclein; details: result in words
# T3 construct: GST (cleaved yes); made in house; host or cells: E. coli Rosetta 2 (DE3)
# [6] = test system: WS-1 human fibroblast cells; assay: Cell viability assay; format: cell-based; details: 24 hours
# Method: (§1) Jurkat T cells were cultured in RPMI 1640 medium containing 10% FBS, and 4×10^4 Jurkat T cells were seeded in 100 μL Opti-MEM medium (Invitrogen) of 96-well plate. WS-1 cells were cultured in MEM medium containing 10% FBS and 2×10^4 WS-1 cells were seeded in 100 μL MEM medium containing 10% FBS of 96-well plate for 24 hours, washed with PBS, and cultured in 100 μL Opti-MEM. The cells were maintained at serum-starved state for 6 hours and treated with the compound. After culturing for 24 hours, the cell viability was assayed using the CellTiter 96 AQueous Non-Radioactive Cell Proliferation Assay kit (Promega) according to the manufacturer's instructions.
# Jurkat leukemia T cells = assay: Cell viability assay; format: cell-based; details: 24 hours
# Method: as §1
# A549 cells = assay: Confocal microscopy, cell permeation; format: cell-based; details: fluorescence-labeled compound
# Method: A549 cells (5×10^3 cells) were plated MEM medium containing 10% FBS of 96-well plates. Cells were maintained for 24 hours, washed with PBS, and then […] of fluorescence-labeled compound or 5 (6)-carboxyfluorescein was treated in Opti-MEM medium and incubated for 2.5 hours. The cells were washed with 1×PBS (2 times) and fluorescence images were analyzed.
# Mcl-1172-320 = Mcl-1172-320 (Homo sapiens, UniProt Q07820); assay: Competitive fluorescence polarization assay with labeled Bak-BH3 peptide
# Method: The cell was treated with 1 mM IPTG (isopropyl β-D-1-thiogalactopyranoside) to induce the protein expression. The cell pellet was resuspended with lysis buffer (20 mM Tris, pH 7.2, 250 mM NaCl, complete protease tablet (Roche)) and sonicated to be lysis. After centrifuging, the cell lysate was applied to a 5-mL GSTrap HP column (GE Life Sciences) and performed according to the manufacturer's instructions.
# Various concentrations of phenyl-piperazine-triazine in 40 μL of buffer were added to the mixture. After incubating for 15 minutes, the Fluorescence polarization (mP units) was measured with Infinite®200 PRO Microplate Reader (Tecan).
# Bcl-xL1-212 = Bcl-xL1-212 (Homo sapiens, UniProt Q07817); assay: Competitive fluorescence polarization assay, selectivity; format: binding; details: competitive FP
# Description: Because BH3-binding pocket of MCL-1 is similar to BH3-binding pocket of Bcl-2 family proteins such as Bcl-xL, the present inventors tested the selectivity of PPT-31.
# [7] = biological target: α-synuclein disease-associated mutant A53T (Homo sapiens, UniProt P37840, A53T); assay: Thioflavin-T aggregation assay; format: biochemical; details: 30 hours, 37° C.
# T2 sequence (Q07820 172-320): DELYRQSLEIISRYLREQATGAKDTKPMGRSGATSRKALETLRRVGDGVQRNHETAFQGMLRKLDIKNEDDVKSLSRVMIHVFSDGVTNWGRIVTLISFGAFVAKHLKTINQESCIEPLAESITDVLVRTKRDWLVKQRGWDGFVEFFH
# T1 sequence (Q07820 whole entry): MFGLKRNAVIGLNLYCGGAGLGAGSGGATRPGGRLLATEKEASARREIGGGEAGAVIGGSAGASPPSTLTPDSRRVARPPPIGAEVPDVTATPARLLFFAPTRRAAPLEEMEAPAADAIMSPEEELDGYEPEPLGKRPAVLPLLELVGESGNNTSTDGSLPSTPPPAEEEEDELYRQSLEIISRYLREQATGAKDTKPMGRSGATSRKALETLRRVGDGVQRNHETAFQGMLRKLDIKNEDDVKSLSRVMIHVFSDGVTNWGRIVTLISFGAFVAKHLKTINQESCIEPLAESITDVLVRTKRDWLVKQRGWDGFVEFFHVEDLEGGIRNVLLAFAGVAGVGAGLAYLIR
# Chain of Mcl-1172-320 (Q07820 172-320): as the sequence (Q07820 172-320) above
# Chain of Bcl-xL1-212 (Q07817 1-212): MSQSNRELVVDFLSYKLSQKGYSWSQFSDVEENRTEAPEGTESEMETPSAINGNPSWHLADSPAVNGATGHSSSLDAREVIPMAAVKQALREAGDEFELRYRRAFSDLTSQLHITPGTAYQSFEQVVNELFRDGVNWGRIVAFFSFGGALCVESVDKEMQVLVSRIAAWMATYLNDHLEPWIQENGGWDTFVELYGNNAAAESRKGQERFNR
compound,measurement,setting,value
"CCCN(CC1CC1)c1nc(N)nc(N2CCN(c3nc(NCC)nc(NCc4ccc5c(c4)OCO5)n3)C(Cc3ccccc3)C2)n1 (stereo not drawn) [Chemical formula 5, 6-(4-(4-amino-6-((cyclopropylmethyl)(propyl)amino)-1,3,5-triazin-2-yl)-2-benzylpiperazin-1-yl)-N^2-(benzo[d][1,3]dioxol-5-ylmethyl)-N^4-ethyl-1,3,5-triazine-2,4-diamine]",solubility,[1],~100 µg/mL
same,inhibition of MCL-1/BAK protein interaction in cells,[2],effectively inhibit
same,Ki,[3],17.2 µM
"CCNc1nc(NCCc2ccc(O)cc2)nc(N2CCN(c3nc(N)nc(Nc4ccc(Oc5ccccc5)cc4)n3)CC2Cc2ccccc2)n1 (stereo not drawn) [Chemical formula 6, 4-(2-((4-(4-(4-amino-6-((4-phenoxyphenyl)amino)-1,3,5-triazin-2-yl)-2-benzylpiperazin-1-yl)-6-(ethylamino)-1,3,5-triazin-2-yl)amino)ethyl)phenol]",survival of cancer cells,[4],effectively inhibited the survival
same,caspase 3/7 activity,U266 cells,increased the caspase activity in a concentration-dependent manner
same,survival of normal cells,[5],did not affect survival
same,binding to α-synuclein,α-synuclein,showed affinity
same,survival of normal cells,[6],did not affect survival
same,survival of cancer cells,Jurkat leukemia T cells,effectively inhibited the survival
same,solubility,[1],~100 µg/mL
same,inhibition of MCL-1/BAK protein interaction in cells,[2],inhibited
same,cell permeability,A549 cells,permeable to cells
same,Ki,[3],9.3 µM
"CCNc1nc(N)nc(N2CCN(c3nc(NCC)nc(NCC)n3)CC2)n1 [9-nc, 6-(4-(4-amino-6-(ethylamino)-1,3,5-triazin-2-yl)piperazin-1-yl)-N^2,N^4-diethyl-1,3,5-triazine-2,4-diamine, reference compound]",inhibition of MCL-1/BAK protein interaction in cells,[2],did not inhibit
same,activity in competitive fluorescence polarization assay (MCL-1/BH3),[3],did not bind
"CCNc1nc(NCc2ccccc2)nc(N2CCN(c3ccc(C(N)=O)cc3NCc3ccccc3)CC2Cc2ccccc2)n1 (stereo not drawn) [PPT-31, 2-{4-(2-aminobenzyl-4-carbamoylphenyl)-2-benzyl-piperazine}-4-aminoethyl-6-aminobenzyl-[1,3,5]triazine]",Ki,Mcl-1172-320,7.3 µM
same,inhibitory effect on the Mcl-1/BH3 interaction,"Mcl-1172-320; at 10 μM and 50 μM, among 36 library compounds",highest inhibitory effect
same,inhibition of the interaction between Bcl-xL1-212 and BH3,Bcl-xL1-212,did not inhibit
"CCNc1nc(NCc2ccccc2)nc(N2CCN(c3nc(N)nc(NCc4ccc5c(c4)OCO5)n3)CC2Cc2ccccc2)n1 (stereo not drawn) [Chemical formula 4, 6-(4-(4-amino-6-((benzo[d][1,3]dioxol-5-ylmethyl)amino)-1,3,5-triazin-2-yl)-2-benzylpiperazin-1-yl)-N^2-benzyl-N^4-ethyl-1,3,5-triazine-2,4-diamine]",aggregation of α-synuclein (onset / inhibition),[7],had not inhibition of aggregation
same,solubility,[1],~100 µg/mL
same,activity in competitive fluorescence polarization assay (MCL-1/BH3),[3],weak activity
